From a melting point compilation (Tetko et al.; mined from patent text by program, amines drawn as free bases though some values may be those of a salt) come the findings set out here.

Some results are limits rather than exact numbers.

For orientation: melting point means the temperature, or range, at which the solid turns liquid.

`COc1ccc2c(c1)C(N=Cc1cc(OC)c(OC)cc1[N+](=O)[O-])CCO2` (centres undefined): the melting point lay in the range of 143 to 145 °C.

As for `CCCCCCCCCCCCCCOCC(CC#N)(CC#N)COCCCCCCCCCCCCCC`, the melting point lay in the range of 33 to 35 °C.

As for `Cc1nccc(-c2cccc(S(=O)(=O)n3c(CCCC(=O)O)cc4nc(Cl)ccc43)c2)n1`, the melting point lay in the range of 178 to 188 °C.

`O=S(=O)(Nc1cccc(/C=C/c2ccccc2)c1)C(F)(F)F` returned a melting point of 62 to 64 °C.

With `CCCCc1oc2ccccc2c1C(=O)NCc1ccc2c(-c3ccc(C)cc3)c(O)ccc2c1`, the melting point was in the range of 103 to 105 °C.

In the case of `COc1ccc2cc(C(C)C(=O)N3CSCC3C(=O)O)ccc2c1` (centres undefined), the melting point fell in the range of 165 to 168 °C.

In the case of `COc1ccc(C(=O)C(NCCc2ccc(OC)c(OC)c2Cl)SC)cc1` (centres undefined), the melting point fell in the range of 75 to 78 °C.

As for `COC(=O)c1cc(SC(F)(F)F)c(-c2ccc(Cl)cc2)[nH]1`, the melting point lay within 133 to 137 °C.

`CCCCCCCCCCCCc1cc(C(=O)O)c(C)o1` had a melting point of 70 to 73 °C.

Take `CC(C)CC(CN(C)C)(C(=O)O)C(=O)O`: the melting point was in the range of 134 to 137 °C.

For the compound `O=C(NCCO)c1csc(-c2cccc([N+](=O)[O-])c2)n1`, the melting point lay within 145 to 146 °C.

In turn, `CCCC1=NN(c2cccc(S(=O)(=O)O)c2)C(=O)C1=CNc1ccccc1CC` displayed a melting point of 259 °C.

`Cc1c(Cc2ccc(C(C)C)cc2)c2c(c(C)c1NC(=O)CC(C)(C)C)C(C)CO2` (centres undefined) returned a melting point of 185 to 186 °C.

`O=C(N[C@H](Cc1ccc(C(F)(F)F)cc1)[C@@H](O)c1ccc(F)cc1)c1ccc(F)cc1` (racemic): the melting point is 202 to 203 °C.

As to `CC(=O)C(C)Nc1c(C)cc(C)c2nsnc12` (centres undefined), the melting point fell in the range of 209 to 211 °C.

Turning to `Cc1ccc([N+](=O)[O-])cc1Nc1nccc(-c2cncc(Br)c2)n1`, the melting point was 206 to 208 °C.

Regarding `CCCCc1ccccc1OCCCOc1cccc2c(=O)cc(C(=O)O)oc12`, the melting point was 168 °C.

For the compound `CON=C(C(=O)OC)c1csc(N)n1`, the melting point was found to be 165 °C.

`N#Cc1ccc(CCn2ccn([C@H]3CCc4c(F)cc(F)cc4C3)c2=S)cc1` yielded a melting point of 130 to 133 °C.

In the case of `COc1ccc(C(=O)Nc2ccc(F)cc2)cc1NS(=O)(=O)c1cccc(C#N)c1`, the melting point was 221 to 225 °C.

With `N=C(N)NNC1=NS(=O)(=O)c2ccccc21`, the melting point was 252 to 253 °C.

Consider `C=CCOc1cccc(N2C(=O)C3=C(CCCC3)C2=O)c1`, for which the melting point lay in the range of 88 to 90 °C.

In turn, `Oc1cccc(Cc2ccc3ccccc3c2O)c1` had a melting point of 100 to 101 °C.

`O=C(c1ccc(S(=O)(=O)Cl)cc1)c1cccs1` yielded a melting point of 118 °C.

`O=C(N[C@H](CC1CCCCC1)CN1CCN(c2ncccn2)CC1)C1CCCCC1` displayed a melting point of 121 to 123 °C.

`O=C1C2C3CCC(C4CC43)C2C(=O)N1c1cc(Cl)cc(Cl)c1` (centres undefined) showed a melting point of 145 to 153 °C.

Take `CC1(C)C(=O)Nc2cc3oc(-c4ccncc4)nc3cc21`: the melting point fell in the range of 336 to 338 °C.

For the compound `CC(C)(Br)C(=O)OCCN1C(=O)c2ccccc2C1=O`, the melting point was 63 to 65 °C.

Turning to `Cn1c(-c2ccccc2)cc2onc(-c3ccccc3)c2c1=O`, the melting point lay within 145 to 148 °C.

In turn, `CNC(=S)C1(c2ccc(Cl)c(Cl)c2)CCCCS1` (centres undefined) displayed a melting point of 116 to 117 °C.

Compound `O=C1CCC(C(=O)NCc2cccc3ccccc23)c2ccccc21` (centres undefined) returned a melting point of 155 to 156 °C.

Consider `O=C1N(Cc2ccc(C(F)(F)F)o2)c2ccccc2C12COc1cc3c(cc12)OCCO3` (centres undefined), for which the melting point is 53 to 56 °C.

For the compound `CC(C)CC(CS)C(=O)NCC(=O)NCC(=O)O` (centres undefined), the melting point was in the range of 152 to 156 °C.

In turn, `CCn1cc(C(=O)O)c(=O)c2cc(F)c(N3CC4CCC3CN4)cc21` (centres undefined) returned a melting point of 270 to 272 °C.

As to `CC(=O)N(C)Cc1ccc(F)cc1`, the melting point is 48 to 54 °C.

Regarding `O=C(NCc1ccc(Br)cc1F)OCc1ccccc1`, the melting point is 82 to 84 °C.

`OC1c2ccc(Cl)cc2OCc2cccnc21` (centres undefined) gave a melting point of 105 to 108 °C.

As for `CN(C)CCN(C)C(=O)Cn1c(-c2ccc(Cl)cc2)nc2cccnc21`, the melting point was in the range of 120 to 122 °C.

In turn, `CCOC(=O)Nc1ccc(-c2c[nH]c(=O)cn2)cc1` had a melting point of 260 to 262 °C.

In turn, `Cc1c(C(=O)N[C@H](C)[C@](O)(Cn2cncn2)c2ccc(F)cc2F)cnn1-c1ccc(OC(F)(F)F)cc1` displayed a melting point of 134 to 135 °C.

With `COc1ccc(OC)c2c1C(C)(C)CCC2(C)C`, the melting point turned out to be 195 °C.

Compound `CCCc1c(OCCCOc2ccc(C(=O)C(=O)O)cc2)ccc(C(C)=O)c1O` returned a melting point of 129 to 130 °C.

Turning to `O=C(O)Cc1c(Cl)nc(-c2ccccc2)n1Cc1ccccc1F`, the melting point is 144 to 146 °C.

Consider `CN1C(=O)[C@@](NC(=O)Nc2cccc(N(C)c3nnn[nH]3)c2)(C2CCCCC2)N=Cc2ccccc21`, for which the melting point lay within 222 to 225 °C.

In turn, `Cn1cc(-c2ccccc2)c(=O)c(-c2ccco2)c1` displayed a melting point of 191 to 192 °C.

For the compound `Cc1n[nH]c2c1nc(-c1ccccc1)c1cc(Br)ccc12`, the melting point lay within 299 to 300 °C.

In turn, `Cc1c[nH]c2c([N+](=O)[O-])cccc2c1=O` returned a melting point of 235 to 243 °C.

`CCCOc1ccc2c(c1)C(c1ccc(OC)cc1OCC(=O)O)C(C(=O)O)C2c1cc2c(cc1OC)OCO2` (centres undefined) came in with a melting point of 188 to 190 °C.

For the compound `CCS(=O)CCn1nc(-c2cccc(Cl)c2Cl)c(=O)c2cccc(OC)c21` (centres undefined), the melting point lay in the range of 128 to 130 °C.

Turning to `OCc1ccc(OCc2ccc3ccccc3n2)nc1`, the melting point lay in the range of 124 to 125 °C.

For `CC(=O)N1CCN=C1Nc1cc(C)nn1-c1cccc(C(F)(F)F)c1`, the melting point was in the range of 173 to 175 °C.

Compound `CC1(C)C(=O)Nc2cc3[nH]c(C4=CCCC4)nc3cc21` returned a melting point of 233 to 235 °C.

`CC(=O)c1ccc(=O)[nH]c1C` displayed a melting point of 196 to 198 °C.

As to `CCCCc1nc2c(N)nc3ccccc3c2n1CCOCCON=C(C)C`, the melting point fell in the range of 116 to 118 °C.

`CC(=O)N[C@@H]1CN(C(=O)c2nn(C)c3ccccc23)C[C@@H]1C` (relative stereo): the melting point lay in the range of 202 to 204 °C.

For `O=C(c1ccc(C2CCCCC2)cc1)c1ccccn1`, the melting point was 44 to 45 °C.

As for `C=C1CN(Cc2ccc(C(=O)Nc3ccccc3N)cc2)C(CC(=O)O)c2ccccc21` (centres undefined), the melting point was over 230 °C.

Compound `O=C(O)C(OCCC1CCN(c2ccncc2)CC1)Oc1ccccc1` (centres undefined) displayed a melting point of 247 to 249 °C.

As for `COc1cc(C=CC(=O)Nc2c(C)nc3c(C)cc(C)cc3c2-c2ccccc2Cl)cc(OC)c1OC(C)=O`, the melting point was in the range of 225 to 226 °C.

`CCOC(=O)c1ccc(C(F)(F)F)c(N)c1`: the melting point is 38 to 39 °C.

`CC(=O)Nc1ccc(OC(F)F)c(F)c1` yielded a melting point of 112 to 113 °C.

`O=C(OC1COC(OC(=O)C2CCCCC2)CO1)C1CCCCC1` (centres undefined) had a melting point of 156 to 158 °C.

With `CCn1nc(-c2ccccc2)c(C(C)=O)c(Nc2cc(C)no2)c1=O`, the melting point is 178 to 179 °C.

Take `COCCN1CCC(O)(c2cccc(Cl)c2Cl)CC1`: the melting point fell in the range of 135 to 137 °C.

Regarding `CC(=NNC(=O)C1CCC1)c1ccncc1`, the melting point came out at 139 °C.

Regarding `COC(=O)C1CN(C(=O)c2cc(OC)c(OC)c(OC)c2)CCN1C(=O)OC(C)(C)C` (centres undefined), the melting point fell in the range of 163 to 164 °C.

Turning to `COc1cc2oc(=O)c(CCN3CCN(c4ccccc4OC)CC3)c(C)c2cc1OC(C)C`, the melting point is 123 to 125 °C.

Consider `CCc1ccc2c(c1NC(=O)CC1c3ccccc3Oc3ccccc31)OC(C)C2` (centres undefined), for which the melting point lay in the range of 278 to 279 °C.

Consider `CCc1c(OC)cc(C2CN(C)CC/C2=C\C(=O)OC)cc1OC` (centres undefined), for which the melting point was 110 to 112 °C.

Turning to `COc1cc(C(=O)Nc2cccc3c2CCN(C)C3)cc(OC)c1OC`, the melting point turned out to be 143 °C.

As for `[N-]=[N+]=NCc1nc2ccccc2n1Cc1ccccc1`, the melting point lay in the range of 108 to 110 °C.

Turning to `NCCOc1nc2ccccc2n1C1CCN(C2(c3ccccc3)CCCCCC2)CC1`, the melting point lay in the range of 180 to 184 °C.

Consider `O=C(O)c1ccc(COCc2csc3nc(C(=O)NCc4cccnc4)[nH]c(=O)c23)cc1`, for which the melting point is 309 to 311 °C.

Consider `CN1CCC(c2c[nH]c3ccc(CCS(=O)(=O)N(C)C)cc23)CC1`, for which the melting point was in the range of 170 to 172 °C.

On to `c1ccc2c(c1)[nH]c1nc(N3CCCC3)nc(N3CCCC3)c12`, for which the melting point lay within 209 to 211 °C.

`c1ccc(COc2ccc3nc(-c4ccc(C56CC7CC(CC(C7)C5)C6)c(OCc5ccccc5)c4)[nH]c3c2)cc1` yielded a melting point of 203 °C.

Turning to `O=S(=O)(NCC(c1ccccc1)c1ccc(O)cc1)c1ccccc1` (centres undefined), the melting point lay in the range of 120 to 124 °C.

`CC1(C)COC(c2ccc(F)cc2-c2ccc3c(c2)CCC(Cc2ccccc2)C3=O)=N1` (centres undefined) came in with a melting point of 114 to 115 °C.

On to `COC(=O)C(O)(c1cccc(C(F)(F)F)c1)c1cccc(C(F)(F)F)c1`, for which the melting point fell in the range of 69 to 70 °C.

The compound `Cc1ccc(NC(=O)c2ccc(CN3CCNC(C(N)=O)C3)c(C(F)(F)F)c2)cc1Nc1nccc(-c2cncnc2)n1` (centres undefined) had a melting point of 235 to 238 °C.

`CC(C)(C)OC(=O)NCC1(CC(=O)O)CCCCC1` yielded a melting point of 109 to 111 °C.

Compound `Nc1cc2[nH]c(=O)oc2cc1N` returned a melting point of over 360 °C.

In the case of `COC(=O)c1cc(OC)ccc1Oc1cc(Cl)ccc1[N+](=O)[O-]`, the melting point is 114 to 116 °C.

In the case of `CCNc1nc(C=O)cs1`, the melting point lay within 84 to 85 °C.

In turn, `O=C(Nc1ccc(Oc2ccccc2)cc1)N1CCN(c2ncnc3cc(OCc4ccccc4)c(OCc4ccccc4)cc23)CC1` had a melting point of 137 to 138 °C.

For the compound `COc1cc(COc2nn(Cc3ccccc3)cc2C(C)=O)ccc1OCc1nc(-c2ccco2)oc1C`, the melting point was in the range of 144 to 145 °C.

For `O=C(O)c1ccc(F)c2c1CC(N(CCCc1c[nH]c3ccc(F)cc13)C1CCC1)CO2` (centres undefined), the melting point worked out at 140 °C.

In turn, `CCCSc1sc(C(N)=O)c2c1-c1nn(C(C)=O)cc1CC2` yielded a melting point of 219 to 220 °C.

On to `Cc1c(C)c2c(c(C)c1NC(=O)CC(C)(C)C)C(c1ccccn1)C(C)(C)O2` (centres undefined), for which the melting point is 210 to 212 °C.
